Measured values published in ChEMBL document CHEMBL1124518, “Nonsteroidal cardiotonics. 2. The inotropic activity of linear, tricyclic 5-6-5 fused heterocycles” (1989).

Key:
Felis catus [1] = assay: Maximum increase in dP/dt when administered intravenously in cats at 0.1 mg/kg dose.; assay type: functional; settings: route intravenous
Canis familiaris [2] = assay: Amount of time during which increase in administered orally in conscious dogs at 1 mg/kg; assay type: functional, Canis lupus familiaris; settings: route oral
Felis catus [3] = organism: Felis catus; assay: Effective dose required to produce an increase in dP/dt5 by 1500 mmHg/s in cats; assay type: functional
Canis familiaris [4] = assay: Maximum increase in dP/dt60 when administered orally in dogs at dose 1 mg/kg; assay type: functional, Canis lupus familiaris; settings: route oral
Rattus norvegicus [5] = organism: Rattus norvegicus; assay: Effective dose required to produce an increase in dP/dt5 by 1500 mmHg/s in rats; assay type: functional
Canis familiaris [6] = assay: Maximum increase in dP/dt when administered intravenously in dogs at 0.03 mg/kg dose.; assay type: functional, Canis lupus familiaris; settings: route intravenous
Canis familiaris [7] = assay: Time after which maximum increase in contractility was observed when administered orally in conscious dogs at 1 mg/kg; assay type: functional, Canis lupus familiaris; settings: route oral
Rattus norvegicus [8] = assay: Maximum increase in dP/dt when administered intravenously in rats at 1 mg/kg dose.; assay type: functional; set-up: unit not given here; settings: route intravenous
Canis familiaris [9] = organism: Canis familiaris; assay: Effective dose required to produce an increase in dP/dt5 by 1500 mmHg/s in dogs; assay type: functional, Canis lupus familiaris
Rattus norvegicus [10] = assay: Maximum increase in dP/dt when administered intravenously in rats at 1 mg/kg.; assay type: functional; settings: route intravenous
Canis familiaris [11] = assay: Maximum increase in dP/dt when administered intravenously in dogs at 1 mg/kg dose.; assay type: functional, Canis lupus familiaris; settings: route intravenous
Felis catus [12] = assay: Maximum increase in dP/dt when administered intravenously in cats at 0.3 mg/kg dose.; assay type: functional; settings: route intravenous
Rattus norvegicus [13] = assay: Maximum increase in dP/dt when administered intravenously in rats at 10 mg/kg dose.; assay type: functional; set-up: unit not given here; settings: route intravenous
Canis familiaris [14] = assay: Maximum increase in dP/dt when administered intravenously in dogs at 0.3 mg/kg dose.; assay type: functional, Canis lupus familiaris; settings: route intravenous
Rattus norvegicus [15] = assay: Maximum increase in dP/dt when administered intravenously in rats at 3 mg/kg dose.; assay type: functional; settings: route intravenous
Felis catus [16] = assay: Maximum increase in dP/dt when administered intravenously in cats at 0.3 mg/kg.; assay type: functional; settings: route intravenous
Felis catus [17] = assay: Maximum increase in dP/dt when administered intravenously in cats at 3 mg/kg dose.; assay type: functional; settings: route intravenous
Rattus norvegicus [18] = assay: Maximum increase in dP/dt when administered intravenously in rats Value in parenthesis denotes dose at which test performed; assay type: functional
Rattus norvegicus [19] = assay: Maximum increase in dP/dt when administered intravenously in rats at 3 mg/kg.; assay type: functional; settings: route intravenous
Canis familiaris [20] = assay: Maximum increase in dP/dt when administered intravenously in dogs at 1 mg/kg.; assay type: functional, Canis lupus familiaris; settings: route intravenous
Canis familiaris [21] = assay: Maximum increase in dP/dt when administered intravenously in dogs at 0.1 mg/kg.; assay type: functional, Canis lupus familiaris; settings: route intravenous
Felis catus [22] = assay: Maximum increase in dP/dt when administered intravenously in cats at 0.03 mg/kg dose.; assay type: functional; settings: route intravenous
Canis familiaris [23] = assay: Maximum increase in dP/dt60 when administered orally in dogs at dose 0.5 mg/kg; assay type: functional, Canis lupus familiaris; settings: route oral
Canis familiaris [24] = assay: Amount of time during which increase in administered orally in conscious dogs at 0.5 mg/kg; assay type: functional, Canis lupus familiaris; settings: route oral
Canis familiaris [25] = assay: Time after which maximum increase in contractility was observed when administered orally in conscious dogs at 0.5 mg/kg; assay type: functional, Canis lupus familiaris; settings: route oral
Rattus norvegicus [26] = assay: Maximum increase in dP/dt when administered intravenously in rats at 0.1 mg/kg dose.; assay type: functional; settings: route intravenous
Rattus norvegicus [27] = assay: Maximum increase in dP/dt when administered intravenously in rats at […] dose.; assay type: functional
Felis catus [28] = assay: Maximum increase in dP/dt when administered intravenously in cats at 3 mg/kg.; assay type: functional; settings: route intravenous
Canis familiaris [29] = assay: Maximum increase in dP/dt60 when administered orally in dogs at dose 0.3 mg/kg; assay type: functional, Canis lupus familiaris; settings: route oral
Canis familiaris [30] = assay: Amount of time during which increase in administered orally in conscious dogs at 0.3 mg/kg; assay type: functional, Canis lupus familiaris; settings: route oral

Structure (SMILES)	Duration (Canis familiaris [2]) [h]	ED1.5 (Felis catus [3]) [mg/kg]	ED1.5 (Rattus norvegicus [5]) [mg/kg]	Time (Canis familiaris [7]) [min]	ED1.5 (Canis familiaris [9]) [mg/kg]	further results
CC1(C)C(=O)Nc2cc3[nH]c(-c4cnsn4)nc3cc21	3	0.004	0.007	10	0.008	Max (Felis catus [1]): 2.6 mmHg s-1; Max (Canis familiaris [4]): 3 mmHg s-1; Max (Canis familiaris [6]): 2.3 mmHg s-1; Max (Rattus norvegicus [8]): 3.5
CC(C)c1nc2cc3c(cc2[nH]1)C(C)(C)C(=O)N3	3	0.09	0.22	30	0.46	Max (Rattus norvegicus [10]): 2.3 mmHg s-1; Max (Canis familiaris [4]): 2.2 mmHg s-1; Max (Canis familiaris [11]): 1.9 mHg s-1
CC1(C)C(=O)Nc2cc3[nH]c(-c4c[nH]cn4)nc3cc21	2		0.12	120	0.07	Max (Canis familiaris [11]): 2.7 mHg s-1
CC1(C)C(=O)Nc2cc3[nH]c(-c4cnccn4)nc3cc21		0.04	0.1			Max (Felis catus [12]): 2.7 mHg/s; Max (Rattus norvegicus [13]): 2.6
CC1(C)C(=O)Nc2cc3[nH]c(-c4ccco4)nc3cc21	2	0.06	0.07	40	0.06	Max (Canis familiaris [14]): 2.7 mHg/s; Max (Rattus norvegicus [15]): 2.9 mHg s-1
CCCc1nc2cc3c(cc2[nH]1)C(C)(C)C(=O)N3		0.12	0.17			Max (Felis catus [16]): 2 mmHg s-1; Max (Rattus norvegicus [8]): 2.5
CC1(C)C(=O)Nc2cc3[nH]c(-c4ccc[nH]4)nc3cc21		0.07	0.45		0.32	Max (Felis catus [17]): 2.3 mmHg s-1; Max (Rattus norvegicus [13]): 2.6; Max (Canis familiaris [11]): 1.9 mHg s-1
CC1(C)C(=O)Nc2cc3[nH]c(-c4ccccc4)nc3cc21	0	0.15	0.37			Max (Felis catus [17]): 3 mmHg s-1; Max (Rattus norvegicus [13]): 4.2
CC1(C)C(=O)Nc2cc3[nH]nnc3cc21			0.18			Max (Rattus norvegicus [18]): 2.6 mmHg s-1
CCn1c(O)nc2cc3[nH]c(-c4ccncc4)nc3cc21	0	0.007	0.05			Max (Felis catus [1]): 3.1 mmHg s-1; Max (Rattus norvegicus [19]): 2.3 mmHg s-1
Cn1c(O)nc2cc3[nH]c(-c4ccncc4)nc3cc21	0	0.01	0.33		0.12	Max (Rattus norvegicus [13]): 2.6; Max (Canis familiaris [20]): 2.9 mmHg s-1
CC1(C)C(=O)Nc2cc3[nH]c(-c4ccnnc4)nc3cc21	5	0.01	0.04	150	0.035	Max (Canis familiaris [4]): 2.3 mmHg s-1; Max (Canis familiaris [21]): 2.6 mmHg s-1; Max (Felis catus [22]): 2.4 mmHg s-1
CC1(C)C(=O)Nc2cc3[nH]c(O)nc3cc21	> 6	0.08	0.13	45	0.12	Max (Canis familiaris [23]): 1.6 mHg s-1; Duration (Canis familiaris [24]): 6 h; Max (Felis catus [17]): 2.9 mmHg s-1; Time (Canis familiaris [25]): 60 min; Max (Canis familiaris [14]): 2 mHg/s; Max (Rattus norvegicus [8]): 3
Oc1nc2cc3nc(-c4ccncc4)[nH]c3cc2o1	0	0.06	0.52		0.12	Max (Canis familiaris [14]): 2.6 mHg/s; Max (Rattus norvegicus [13]): 4.1
Cn1c(O)nc2cc3[nH]c(-c4ccnnc4)nc3cc21	0		0.19			Max (Rattus norvegicus [8]): 2.7
Cn1c(O)nc2cc3c(cc21)C(C)(C)C(=O)N3	> 5	0.02	0.03	30		Max (Felis catus [1]): 2.1 mmHg s-1; Max (Rattus norvegicus [26]): 2.4 mmHg s-1
CC1(C)C(=O)Nc2cc3[nH]c(O)cc3cc21			0.11			Max (Rattus norvegicus [27]): 2 mmHg s-1
Cc1nc2cc3c(cc2[nH]1)C(C)(C)C(=O)N3	3	0.17	0.48	30	0.46	Max (Rattus norvegicus [13]): 3.5; Max (Canis familiaris [11]): 2.2 mHg s-1; Max (Felis catus [28]): 2.8 mHg/s
CC1(C)C(=O)Nc2cc3[nH]c(-c4ccncc4)nc3cc21 [ADIBENDAN]	> 6	0.01	0.01	45	0.2	Max (Canis familiaris [11]): 2 mHg s-1; Max (Rattus norvegicus [26]): 3.7 mmHg s-1
CC1(C)C(=O)Nc2ccc(C3=NNC(=O)CC3)cc21 [INDOLIDAN]				45		Max (Canis familiaris [29]): 2.8 mmHg s-1; Duration (Canis familiaris [30]): > 6 h
COc1ccc(-c2nc3cc(C4=NNC(=O)CC4C)ccc3[nH]2)cc1 (configuration not stated) [PIMOBENDAN]	6	0.6	1.3	30	1.1	Max (Canis familiaris [11]): 1.3 mHg s-1; Max (Rattus norvegicus [15]): 2 mHg s-1
